Biological target: T1, SIRT1 (Homo sapiens, UniProt Q96EB6)
T1 sequence (Q96EB6 1-747): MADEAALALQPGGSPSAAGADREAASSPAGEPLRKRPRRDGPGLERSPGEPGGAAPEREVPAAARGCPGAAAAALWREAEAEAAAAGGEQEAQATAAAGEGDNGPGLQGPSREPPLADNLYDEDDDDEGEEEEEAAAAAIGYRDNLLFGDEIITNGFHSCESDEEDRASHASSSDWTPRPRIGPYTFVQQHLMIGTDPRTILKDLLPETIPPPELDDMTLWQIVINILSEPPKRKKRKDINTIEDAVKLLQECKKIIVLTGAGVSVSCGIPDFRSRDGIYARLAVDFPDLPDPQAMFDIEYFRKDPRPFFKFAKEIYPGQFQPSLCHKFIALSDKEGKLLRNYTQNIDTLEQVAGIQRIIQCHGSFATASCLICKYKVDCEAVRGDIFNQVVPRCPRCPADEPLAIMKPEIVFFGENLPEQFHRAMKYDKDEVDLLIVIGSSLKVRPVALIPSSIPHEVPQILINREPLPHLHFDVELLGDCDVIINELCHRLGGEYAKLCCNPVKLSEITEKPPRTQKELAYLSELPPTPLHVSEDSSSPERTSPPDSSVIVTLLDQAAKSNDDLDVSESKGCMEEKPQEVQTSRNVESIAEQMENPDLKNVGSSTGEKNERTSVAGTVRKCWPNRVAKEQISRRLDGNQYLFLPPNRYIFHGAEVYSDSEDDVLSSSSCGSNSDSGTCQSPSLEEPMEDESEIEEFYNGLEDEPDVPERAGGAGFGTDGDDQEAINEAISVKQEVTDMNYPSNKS
Test: Trp mass spectrometry assay of SIRT1 activation (Ac-R-H-K-K(Ac)-W-NH2 peptide)
Assay type: biochemical
Details: Trp peptide 0.5 μM, 120 μM βNAD+, 10 nM SIRT1, 25 min at 25° C.; for Emax: 25 min, read-out: TRP MAX RESP (percent maximum fold activation)
Method: The Trp mass spectrometry assay was conducted as follows. […] The SIRT1 protein was obtained by cloning the SirT1 gene into a T7-promoter containing vector, which was then expressed in BL21(DE3) bacterial cells and purified as described in further detail below. Test compound was added at varying concentrations to this reaction mixture and the resulting reactions were monitored. After the 25 minute incubation with SIRT1, 10 μL of 10% formic acid was added to stop the reaction. The resulting reactions were sealed and frozen for later mass spec analysis. The relative SIRT1 activity was then determined by measuring the amount of O-acetyl-ADP-ribose (OAADPR) formed (or, alternatively, the amount of deacetylated Trp peptide generated) by the NAD-dependent sirtuin deacetylation reaction in the presence of varying concentrations of the test compound versus control reactions lacking the test compound. The degree to which the test agent activated deacetylation by SIRT1 was expressed as EC1.5 (i.e., the concentration of compound required to increase SIRT1 activity by 50% over the control lacking test compound), and Percent Maximum Activation (i.e., the maximum activity relative to control (100%) obtained for the test compound).
This time point was the same as that used for test compounds and, within the linear range, the endpoint represents a change in velocity.
For the above assay, SIRT1 protein was expressed and purified as follows. The SirT1 gene was cloned into a T7-promoter containing vector and transformed into BL21(DE3). The protein was expressed by induction with 1 mM IPTG as an N-terminal His-tag fusion protein at 18° C. overnight and harvested at 30,000×g. Cells were lysed with lysozyme in lysis buffer (50 mM Tris-HCl, 2 mM Tris[2-carboxyethyl]phosphine (TCEP), 10 μM ZnCl2, 200 mM NaCl) and further treated with sonication for 10 min for complete lysis. The protein was purified over a Ni-NTA column (Amersham) and fractions containing pure protein were pooled, concentrated and run over a sizing column (Sephadex S200 26/60 global). The peak containing soluble protein was collected and run on an Ion-exchange column (MonoQ). Gradient elution (200 mM-500 mM NaCl) yielded pure protein. This protein was concentrated and dialyzed against dialysis buffer (20 mM Tris-HCl, 2 mM TCEP) overnight. The protein was aliquoted and frozen at −80° C. until further use.
“NT” means not tested; “ND” means not determinable.

## O=C(N[C@H]1C[C@H](O)C1)c1ccc2c(n1)N(C(=O)Nc1ccccn1)[C@H]1CCN2C1 (racemic) [Example 210, (4S)—N7-((1r,3S)-3-hydroxycyclobutyl)-N5-(pyridin-2-yl)-3,4-dihydro-1,4-methanopyrido[2,3-b][1,4]diazepine-5,7(2H)-dicarboxamide]
Relative to control (100%)
  Emax: > 150%
  TRP Activity (EC1.5, concentration of test compound that results in 150% activation of SIRT1): B (EC1.5 1-25 μM)

## O=C(NC(CCO)C(F)(F)F)c1ccc2c(n1)N(C(=O)Nc1ccccn1)[C@H]1CCN2C1 (single isomer, unassigned) [Example 18]
Relative to control (100%)
  Emax: > 150%
  TRP Activity (EC1.5, concentration of test compound that results in 150% activation of SIRT1): A (EC1.5<1 μM)

## O=C(NC1CC1(F)F)c1ccc2c(n1)N(C(=O)Nc1ccccn1)[C@H]1CCN2C1 (single isomer, unassigned) [Example 43]
Relative to control (100%)
  Emax: > 150%
  TRP Activity (EC1.5, concentration of test compound that results in 150% activation of SIRT1): A (EC1.5<1 μM)

## O=C(NC1CC1(F)F)c1ccc2c(n1)N(C(=O)Nc1ccccn1)[C@H]1CCN2C1 (single isomer, unassigned) [Example 44]
  TRP Activity (EC1.5, concentration of test compound that results in 150% activation of SIRT1): A (EC1.5<1 μM)

## NC(CNC(=O)c1ccc2c(n1)N(C(=O)Nc1ccccn1)[C@H]1CCN2C1)C(F)(F)F (single isomer, unassigned) [Example 49]
Relative to control (100%)
  Emax: > 150%
  TRP Activity (EC1.5, concentration of test compound that results in 150% activation of SIRT1): B (EC1.5 1-25 μM)

## NC[C@H](NC(=O)c1ccc2c(n1)N(C(=O)Nc1ccccn1)[C@H]1CCN2C1)C(F)(F)F (single isomer, unassigned) [Example 50]
Relative to control (100%)
  Emax: > 150%
  TRP Activity (EC1.5, concentration of test compound that results in 150% activation of SIRT1): A (EC1.5<1 μM)

## O=C(NC(CO)C1CC1)c1ccc2c(n1)N(C(=O)Nc1ccccn1)[C@H]1CCN2C1 (single isomer, unassigned) [Example 58]
Relative to control (100%)
  Emax: > 150%
  TRP Activity (EC1.5, concentration of test compound that results in 150% activation of SIRT1): A (EC1.5<1 μM)

## COCC(NC(=O)c1ccc2c(n1)N(C(=O)Nc1ccccn1)[C@H]1CCN2C1)C1CC1 (single isomer, unassigned) [Example 59]
Relative to control (100%)
  Emax: > 150%
  TRP Activity (EC1.5, concentration of test compound that results in 150% activation of SIRT1): A (EC1.5<1 μM)

## COCC(NC(=O)c1ccc2c(n1)N(C(=O)Nc1ccccn1)[C@H]1CCN2C1)C1CC1 (single isomer, unassigned) [Example 60]
  TRP Activity (EC1.5, concentration of test compound that results in 150% activation of SIRT1): A (EC1.5<1 μM)

## Cc1ccc2c(NC(=O)N3c4nc(C(=O)NC5CC5(F)F)ccc4N4CC[C@H]3C4)n[nH]c2n1 (single isomer, unassigned) [Example 65]
Relative to control (100%)
  Emax: > 150%
  TRP Activity (EC1.5, concentration of test compound that results in 150% activation of SIRT1): A (EC1.5<1 μM)

## O=C(N[C@H](CO)C(F)(F)F)c1ccc2c(n1)N(C(=O)Nc1cc(OC[C@H](O)CO)ccn1)[C@H]1CCN2C1 (single isomer, unassigned) [Example 92]
Relative to control (100%)
  Emax: > 150%
  TRP Activity (EC1.5, concentration of test compound that results in 150% activation of SIRT1): A (EC1.5<1 μM)

## CC(NC(=O)c1ccc2c(n1)N(C(=O)Nc1ccccn1)[C@H]1CCN2C1)C1CC1 (single isomer, unassigned) [Example 100]
Relative to control (100%)
  Emax: > 150%
  TRP Activity (EC1.5, concentration of test compound that results in 150% activation of SIRT1): A (EC1.5<1 μM)

## CC(NC(=O)c1ccc2c(n1)N(C(=O)Nc1ccccn1)[C@H]1CCN2C1)C1CC1 (single isomer, unassigned) [Example 101]
  TRP Activity (EC1.5, concentration of test compound that results in 150% activation of SIRT1): A (EC1.5<1 μM)

## CC(C#N)NC(=O)c1ccc2c(n1)N(C(=O)Nc1ccccn1)[C@H]1CCN2C1 (single isomer, unassigned) [Example 102]
Relative to control (100%)
  Emax: > 150%
  TRP Activity (EC1.5, concentration of test compound that results in 150% activation of SIRT1): A (EC1.5<1 μM)

## CC(C#N)NC(=O)c1ccc2c(n1)N(C(=O)Nc1ccccn1)[C@H]1CCN2C1 (single isomer, unassigned) [Example 103]
  TRP Activity (EC1.5, concentration of test compound that results in 150% activation of SIRT1): A (EC1.5<1 μM)

## O=C(N[C@H](CO)C(F)(F)F)c1ccc2c(n1)N(C(=O)Nc1cnccn1)[C@H]1CCN2C1 (single isomer, unassigned) [Example 119]
Relative to control (100%)
  Emax: > 150%
  TRP Activity (EC1.5, concentration of test compound that results in 150% activation of SIRT1): A (EC1.5<1 μM)

## Cc1ncc(-c2ccnc(NC(=O)N3c4nc(C(=O)N[C@H](CO)C(F)(F)F)ccc4N4CC[C@H]3C4)c2)o1 (single isomer, unassigned) [Example 125]
Relative to control (100%)
  Emax: > 150%
  TRP Activity (EC1.5, concentration of test compound that results in 150% activation of SIRT1): A (EC1.5<1 μM)

## NC(CNC(=O)c1ccc2c(n1)N(C(=O)Nc1cc(OC[C@H](O)CO)ccn1)[C@H]1CCN2C1)C(F)(F)F (single isomer, unassigned) [Example 196]
Relative to control (100%)
  Emax: > 150%
  TRP Activity (EC1.5, concentration of test compound that results in 150% activation of SIRT1): B (EC1.5 1-25 μM)

## Cc1ccc2c(NC(=O)N3c4nc(C(=O)NCC(N)C(F)(F)F)ccc4N4CC[C@H]3C4)n[nH]c2n1 (single isomer, unassigned) [Example 197]
Relative to control (100%)
  Emax: > 150%
  TRP Activity (EC1.5, concentration of test compound that results in 150% activation of SIRT1): B (EC1.5 1-25 μM)

## NC(CNC(=O)c1ccc2c(n1)N(C(=O)Nc1ncccn1)[C@H]1CCN2C1)C(F)(F)F (single isomer, unassigned) [Example 198]
Relative to control (100%)
  Emax: > 150%
  TRP Activity (EC1.5, concentration of test compound that results in 150% activation of SIRT1): B (EC1.5 1-25 μM)

## COCC(O)CNC(=O)c1ccc2c(n1)N(C(=O)Nc1ccccn1)[C@H]1CCN2C1 (single isomer, unassigned) [Example 214]
Relative to control (100%)
  Emax: > 150%
  TRP Activity (EC1.5, concentration of test compound that results in 150% activation of SIRT1): B (EC1.5 1-25 μM)

## Cc1ccc2c(NC(=O)N3c4nc(C(=O)NC5CC5(F)F)ccc4N4CC[C@H]3C4)n[nH]c2n1 (single isomer, unassigned) [Example 221]
  TRP Activity (EC1.5, concentration of test compound that results in 150% activation of SIRT1): B (EC1.5 1-25 μM)
Relative to control (100%)
  TRP MAX RESP (percent maximum fold activation): A (Fold activation≥150%)

## NCC(NC(=O)c1ccc2c(n1)N(C(=O)Nc1ccccn1)[C@H]1CCN2C1)C(F)(F)F (single isomer, unassigned) [Example 223]
Relative to control (100%)
  Emax: > 150%
  TRP Activity (EC1.5, concentration of test compound that results in 150% activation of SIRT1): B (EC1.5 1-25 μM)

## Cc1ccc2c(NC(=O)N3c4nc(C(=O)NC[C@@H](N)C(F)(F)F)ccc4N4CC[C@H]3C4)n[nH]c2n1 (single isomer, unassigned) [Example 233]
Relative to control (100%)
  Emax: > 150%

## N[C@H](CNC(=O)c1ccc2c(n1)N(C(=O)Nc1ncccn1)[C@H]1CCN2C1)C(F)(F)F (single isomer, unassigned) [Example 235]
Relative to control (100%)
  Emax: > 150%
  TRP Activity (EC1.5, concentration of test compound that results in 150% activation of SIRT1): A (EC1.5<1 μM)

## O=C(NC1CC1(F)F)c1ccc2c(n1)N(C(=O)Nc1ccc(F)cn1)[C@H]1CCN2C1 (single isomer, unassigned) [Example 242]
Relative to control (100%)
  Emax: > 150%
  TRP Activity (EC1.5, concentration of test compound that results in 150% activation of SIRT1): A (EC1.5<1 μM)

## O=C(NC1CC1(F)F)c1ccc2c(n1)N(C(=O)Nc1ccc(F)cn1)[C@H]1CCN2C1 (single isomer, unassigned) [Example 243]
  TRP Activity (EC1.5, concentration of test compound that results in 150% activation of SIRT1): A (EC1.5<1 μM)

## O=C(NC1CC1(F)F)c1ccc2c(n1)N(C(=O)Nc1cc(OC[C@H](O)CO)ccn1)[C@H]1CCN2C1 (single isomer, unassigned) [Example 245]
Relative to control (100%)
  Emax: > 150%
  TRP Activity (EC1.5, concentration of test compound that results in 150% activation of SIRT1): A (EC1.5<1 μM)
